Results published in US7371766B2, “Curcumin analogs with anti-tumor and anti-angiogenic properties” (Emory University, priority 1999, dated 2008).
Where two headings read alike, the source gives them in different places.

How the values were obtained:
[1] = tested on: HL-60 (TB); assay: cells; conditions: Homo sapiens, HL-60, 48 h; for GI50: read-out: Median Growth Inhibitory Concentration (GI50); for CC50: read-out: Median Lethal Concentration (LC50)
[2] = tested on: MOLT-4; assay: cells; conditions: Homo sapiens, MOLT-4, 48 h; for GI50: read-out: Median Growth Inhibitory Concentration (GI50); for CC50: read-out: Median Lethal Concentration (LC50)
[3] = tested on: EKVX; assay: cells; conditions: Homo sapiens, 48 h; for GI50: read-out: Median Growth Inhibitory Concentration (GI50); for CC50: read-out: Median Lethal Concentration (LC50)
[4] = tested on: NCI-H226; assay: cells; conditions: Homo sapiens, NCI-H226, 48 h; for GI50: read-out: Median Growth Inhibitory Concentration (GI50); for CC50: read-out: Median Lethal Concentration (LC50)
[5] = tested on: NCI-H23; assay: cells; conditions: Homo sapiens, NCI-H23, 48 h; for GI50: read-out: Median Growth Inhibitory Concentration (GI50); for CC50: read-out: Median Lethal Concentration (LC50)
[6] = tested on: NCI-H522; assay: cells; conditions: Homo sapiens, NCI-H522, 48 h; for GI50: read-out: Median Growth Inhibitory Concentration (GI50); for CC50: read-out: Median Lethal Concentration (LC50)
[7] = tested on: COLO 205; assay: cells; conditions: Homo sapiens, COLO 205, 48 h; for GI50: read-out: Median Growth Inhibitory Concentration (GI50); for CC50: read-out: Median Lethal Concentration (LC50)
[8] = tested on: HT29; assay: cells; conditions: Homo sapiens, HT-29, 48 h; for GI50: read-out: Median Growth Inhibitory Concentration (GI50); for CC50: read-out: Median Lethal Concentration (LC50)
[9] = tested on: SW-620; assay: cells; conditions: Homo sapiens, SW-620, 48 h; for GI50: read-out: Median Growth Inhibitory Concentration (GI50); for CC50: read-out: Median Lethal Concentration (LC50)
[10] = tested on: SF-295; assay: cells; conditions: Homo sapiens, SF-295, 48 h; for GI50: read-out: Median Growth Inhibitory Concentration (GI50); for CC50: read-out: Median Lethal Concentration (LC50)
[11] = tested on: SF-539; assay: cells; conditions: Homo sapiens, SF-539, 48 h; for GI50: read-out: Median Growth Inhibitory Concentration (GI50); for CC50: read-out: Median Lethal Concentration (LC50)
[12] = tested on: SNB-19; assay: cells; conditions: Homo sapiens, SNB-19, 48 h; for GI50: read-out: Median Growth Inhibitory Concentration (GI50); for CC50: read-out: Median Lethal Concentration (LC50)
[13] = tested on: U251; assay: cells; conditions: Homo sapiens, U-251, 48 h; for GI50: read-out: Median Growth Inhibitory Concentration (GI50); for CC50: read-out: Median Lethal Concentration (LC50)
[14] = tested on: LOX IMVI; assay: cells; conditions: Homo sapiens, 48 h, read-out: Median Growth Inhibitory Concentration (GI50)
[15] = tested on: SK-MEL-2; assay: cells; conditions: Homo sapiens, SK-MEL-2, 48 h; for GI50: read-out: Median Growth Inhibitory Concentration (GI50); for CC50: read-out: Median Lethal Concentration (LC50)
[16] = tested on: UACC-257; assay: cells; conditions: Homo sapiens, UACC-257, 48 h; for GI50: read-out: Median Growth Inhibitory Concentration (GI50); for CC50: read-out: Median Lethal Concentration (LC50)
[17] = tested on: UACC-62; assay: cells; conditions: Homo sapiens, UACC-62, 48 h; for GI50: read-out: Median Growth Inhibitory Concentration (GI50); for CC50: read-out: Median Lethal Concentration (LC50)
[18] = tested on: IGROV1; assay: cells; conditions: Homo sapiens, IGROV-1, 48 h; for GI50: read-out: Median Growth Inhibitory Concentration (GI50); for CC50: read-out: Median Lethal Concentration (LC50)
[19] = tested on: 786-0; assay: cells; conditions: Homo sapiens, 786-0, 48 h; for GI50: read-out: Median Growth Inhibitory Concentration (GI50); for CC50: read-out: Median Lethal Concentration (LC50)
[20] = tested on: A498; assay: cells; conditions: Homo sapiens, A498, 48 h; for GI50: read-out: Median Growth Inhibitory Concentration (GI50); for CC50: read-out: Median Lethal Concentration (LC50)
[21] = tested on: ACHN; assay: cells; conditions: Homo sapiens, 48 h; for GI50: read-out: Median Growth Inhibitory Concentration (GI50); for CC50: read-out: Median Lethal Concentration (LC50)
[22] = tested on: CAKI-1; assay: cells; conditions: Homo sapiens, CAKI-1, 48 h; for GI50: read-out: Median Growth Inhibitory Concentration (GI50); for CC50: read-out: Median Lethal Concentration (LC50)
[23] = tested on: PC-3; assay: cells; conditions: Homo sapiens, PC-3, 48 h; for GI50: read-out: Median Growth Inhibitory Concentration (GI50); for CC50: read-out: Median Lethal Concentration (LC50)
[24] = tested on: NCI/ADR-RES; assay: cells; conditions: Homo sapiens, 48 h; for GI50: read-out: Median Growth Inhibitory Concentration (GI50); for CC50: read-out: Median Lethal Concentration (LC50)
[25] = tested on: MDA-MB-231; assay: cells; conditions: Homo sapiens, MDA-MB-231, 48 h; for GI50: read-out: Median Growth Inhibitory Concentration (GI50); for CC50: read-out: Median Lethal Concentration (LC50)
[26] = tested on: HS 578T; assay: cells; conditions: Homo sapiens, 48 h; for GI50: read-out: Median Growth Inhibitory Concentration (GI50); for CC50: read-out: Median Lethal Concentration (LC50)
[27] = tested on: MDA-MB-435; assay: cells; conditions: Homo sapiens, MDA-MB-435, 48 h; for GI50: read-out: Median Growth Inhibitory Concentration (GI50); for CC50: read-out: Median Lethal Concentration (LC50)
[28] = tested on: Vascular Endothelial Growth Factor (VEGF) production by human melanoma cell line RPMI-7951; assay: VEGF ELISA, RPMI-7951; conditions: for VEGF ELISA / VEGF: RPMI-7951; for VEGF ELISA: DMSO control 3713
[29] = tested on: RPMI-7951 human melanoma; assay: Neutral Red Assay, cell viability, RPMI-7951; conditions: Homo sapiens
Method: RPMI-795 1, MDA-MB-231 and MDA-MB-435 cell lines were cultured in MEM-alpha medium (GIBCO-BRL, Long Island, N.Y.) containing 10% fetal bovine serum (RPMI-7951, MDA-MB-231) or 5% FBS (MDA-MB-435) at 37° C. and under 5% CO2/95% air. […] The cells were cultured in 48 well plates in all of the experiments described.
Neutral Red Assay was utilized to determine the effect of the compounds of the present invention on cell viability. Neutral Red was purchased from GIBCO-BRL (Long Island, N.Y.). Cells were plated at a concentration of 20,000 cells/well and cultured overnight. Compounds or vehicle (DMSO 0.1%) were then added and the plates were incubated for 72 hours. Supernatant from each well was either aspirated or collected and media containing Neutral Red (GIBCO-BRL, Long Island, N.Y.) at a concentration of 15 μl/ml was then added to each well. The plates were then incubated at 37° C. for 30 minutes. Next, the cells were washed with twice with PBS and alcoholic-HCl (0.5N—HCl/35% ethanol) was added to each well. The plates were then placed on a plate shaker until all residues were solubilized (pink color). The solubilized mixtures were then transferred to a 96 well plate and the absorbances were read on a micro-test plate reader at a wavelength of 570 nm.
Cell viability was determined by Neutral Red Assay.

[30] = Homo sapiens, RPMI-7951, 72 h, read-out: VEGF
[31] = RPMI-7951, 72 h, read-out: Neutral Red Uptake, %
[32] = RPMI-7951, read-out: Cell Viability

`COc1cc(/C=C/C(=O)CC(=O)/C=C/c2ccc(O)c(OC)c2)ccc1O` [Curcumin] gave a GI50 [1] of 7.9 µM, a CC50 [1] of less than 100 µM and a GI50 [2] of 5 µM. The CC50 [2] was 79.4 µM, the GI50 [3] was 15.8 µM and the CC50 [3] was 79.4 µM. The GI50 [4] was 20 µM, the CC50 [4] was less than 100 µM and the GI50 [5] was 5 µM. It also gave a CC50 [5] of less than 100 µM, a GI50 [6] of 5 µM and a CC50 [6] of 79.4 µM. It also gave a GI50 [7] of 12.6 µM, a CC50 [7] of 63.1 µM and a GI50 [8] of 5 µM. For the same molecule, the CC50 [8] was less than 100 µM, the GI50 [9] was 4 µM and the CC50 [9] was 79.4 µM. For the same molecule, the GI50 [10] was 7.9 µM, the CC50 [10] was 50.1 µM and the GI50 [11] was 3.2 µM. The CC50 [11] was 31.6 µM, the GI50 [12] was 7.9 µM and the CC50 [12] was 63.1 µM. The GI50 [13] was 5 µM, the CC50 [13] was 50.1 µM and the GI50 [14] was 2.5 µM. The GI50 [15] was 15.8 µM, the CC50 [15] was 79.4 µM and the GI50 [16] was 12.6 µM. It also gave a CC50 [16] of 50.1 µM, a GI50 [17] of 6.3 µM and a CC50 [17] of 50.1 µM. It also gave a GI50 [18] of 7.9 µM, a CC50 [18] of 79.4 µM and a GI50 [19] of 3.2 µM. The CC50 [19] was 39.8 µM, the GI50 [20] was 15.8 µM and the CC50 [20] was 63.1 µM. The GI50 [21] was 12.6 µM, the CC50 [21] was 63.1 µM and the GI50 [22] was 12.6 µM. It also gave a CC50 [22] of 50.1 µM, a GI50 [23] of 7.9 µM and a CC50 [23] of 63.1 µM. For the same molecule, the GI50 [24] was 7.9 µM, the CC50 [24] was less than 100 µM and the GI50 [25] was 20 µM. The CC50 [25] was less than 100 µM, the GI50 [26] was 10 µM and the CC50 [26] was less than 100 µM. For the same molecule, the GI50 [27] was 3.2 µM, the CC50 [27] was 39.8 µM and the activity at 5 µM [28, 30] was 98%. The activity at 20 µM [28, 30] was 5%, the “VEGF ELISA” value ([28]; 5 μM) was 3989 pg/ml/well and the VEGF ([28]; 5 μM, DMSO control 4197 (EF-25: 1045)) was 4111 pg/mL. The “VEGF ELISA” value ([28]; 20 μM) was 714 pg/ml/well, the VEGF ([28]; 20 μM, DMSO control 4197) was 221 pg/mL and the viability at 5 µM [29, 31] was 100%. It also gave a viability at 20 µM [29, 31] of 14%, a viability at 5 µM [29, 32] of 105% and a viability at 20 µM [29, 32] of 47%.

With `CC(=O)O.O=C1C(=Cc2ccccc2F)CNCC1=Cc1ccccc1F` [EF24, 3,5-Bis-(2-fluorobenzylidene)-piperidin-4-one-acetate] the GI50 [1] was 0.4 µM, the CC50 [1] was greater than 100 µM and the GI50 [2] was 0.5 µM. For the same molecule, the CC50 [2] was 66.2 µM, the GI50 [3] was 0.9 µM and the CC50 [3] was 9.4 µM. It also gave a GI50 [4] of 3.6 µM, a CC50 [4] of 48.3 µM and a GI50 [5] of 0.9 µM. For the same molecule, the CC50 [5] was 5.3 µM, the GI50 [6] was 0.9 µM and the CC50 [6] was 22.9 µM. It also gave a GI50 [7] of 0.8 µM, a CC50 [7] of 8 µM and a GI50 [8] of 0.3 µM. It also gave a CC50 [8] of 57.3 µM, a GI50 [9] of 0.2 µM and a CC50 [9] of 4.4 µM. The GI50 [10] was 85 µM, the CC50 [10] was 20.6 µM and the GI50 [11] was 0.3 µM. It also gave a CC50 [11] of 7.6 µM, a GI50 [12] of 0.7 µM and a CC50 [12] of 19.3 µM. It also gave a GI50 [13] of 0.2 µM, a CC50 [13] of 0.8 µM and a GI50 [14] of 0.2 µM. For the same molecule, the GI50 [15] was 2.6 µM, the CC50 [15] was 19.5 µM and the GI50 [16] was 1.8 µM. The CC50 [16] was 13.5 µM, the GI50 [17] was 1.6 µM and the CC50 [17] was 4.5 µM. The GI50 [18] was 0.8 µM, the CC50 [18] was 7.1 µM and the GI50 [19] was 0.2 µM. The CC50 [19] was 1.6 µM, the GI50 [20] was 0.9 µM and the CC50 [20] was 3.4 µM. It also gave a GI50 [21] of 1.1 µM, a CC50 [21] of 5.6 µM and a GI50 [22] of 0.8 µM. It also gave a CC50 [22] of 27.2 µM, a GI50 [23] of 0.3 µM and a CC50 [23] of 7.2 µM. It also gave a GI50 [24] of 0.9 µM, a CC50 [24] of 60.6 µM and a GI50 [25] of 1.3 µM. The CC50 [25] was 9.1 µM, the GI50 [26] was 1 µM and the CC50 [26] was 81.4 µM. It also gave a GI50 [27] of 0.6 µM and a CC50 [27] of 7.4 µM.
